# Measurements taken from EP4768487A1, “FUSED LACTAM RING COMPOUND AND USE THEREOF” (Chengdu Zenitar Biomedical Technology Co., Ltd., priority 2023, dated 2025).
# What was measured:
# [1] = system: BRCA wild-type DLD-1 cells; assay: Anti-proliferative activity against cells (CCK8): DLD-1; format: cell-based; conditions: Homo sapiens, 72 h + 96 h culture
# In short: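 DLD-1 cells (1000/well) in RPMI-1640 with 10% FBS, treated 24 h after plating with PARPi at 0, 1 or 10 µM final. Cultured 72 h, medium exchanged with re-added PARPi, then a further 96 h; read-out by CCK8.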
# [2] = Pharmacokinetic evaluation in Balb/c mice; format: in vivo; conditions: 1mg/kg, PO; for AUC(0-t) / Cmax / half-life: male, mouse, plasma
# Protocol: Experimental objective: To understand the pharmacokinetic profiles of the compounds. Experimental basis: Technical guidelines for non-clinical pharmacokinetic studies of chemical drugs, 2014.
# Experimental scheme: The pharmacokinetic profiles of the compounds were investigated by intravenous administration (1 mg·kg^-1) and intragastric administration (1 mg·kg^-1) in Balb/c mice.
# Sample preparation: About 0.2 mg of the compound was weighed out and dissolved in 10 µL of DMSO, and then a sodium chloride solution for injection was added to prepare a 0.1 mg·mL^-1 compound solution for later administration.
# Three of the mice were subjected to intravenous administration (IV) at 1 mg·kg^-1, while the other three were subjected to intragastric administration (PO) at 1 mg·kg^-1. About 0.05 mL of blood was collected at 5 min, 15 min, 30 min, 1 h, 2 h, 4 h, 6 h, 8 h, 10 h, 24 h, and 48 h after administration. The collected blood was centrifuged at 3500 rpm for 15 min. The supernatant plasma was then collected and cryopreserved at -40 °C for later analysis. The plasma concentration was quantitatively analyzed using the LC-MS/MS method, and pharmacokinetic parameters such as […] (Cmax), area under plasma concentration-time curve (AUC(0-t)), half-life (T1/2), clearance rate (CL), tissue distribution (Vdss), and bioavailability (F) were calculated. Table 18. Results of pharmacokinetic test of compounds in Balb/c mice
# [3] = molecular target: T1, hERG potassium ion channel (Homo sapiens, UniProt Q12809); assay: Inhibition of hERG potassium ion channel (Qpatch, CHO cells stably expressing hERG); format: cell-based; conditions: for inhibitory effects on the hERG potassium ion channel (in words): conclusion of Table 17; for inhibition at 2.5 min, 20 µM: human, CHO cells stably expressing hERG, read-out: Inhibition rate at 20 µM
# T1 construct: expressed in transfected cells; host or cells: CHO cells
# T1 sequence (Q12809 whole entry): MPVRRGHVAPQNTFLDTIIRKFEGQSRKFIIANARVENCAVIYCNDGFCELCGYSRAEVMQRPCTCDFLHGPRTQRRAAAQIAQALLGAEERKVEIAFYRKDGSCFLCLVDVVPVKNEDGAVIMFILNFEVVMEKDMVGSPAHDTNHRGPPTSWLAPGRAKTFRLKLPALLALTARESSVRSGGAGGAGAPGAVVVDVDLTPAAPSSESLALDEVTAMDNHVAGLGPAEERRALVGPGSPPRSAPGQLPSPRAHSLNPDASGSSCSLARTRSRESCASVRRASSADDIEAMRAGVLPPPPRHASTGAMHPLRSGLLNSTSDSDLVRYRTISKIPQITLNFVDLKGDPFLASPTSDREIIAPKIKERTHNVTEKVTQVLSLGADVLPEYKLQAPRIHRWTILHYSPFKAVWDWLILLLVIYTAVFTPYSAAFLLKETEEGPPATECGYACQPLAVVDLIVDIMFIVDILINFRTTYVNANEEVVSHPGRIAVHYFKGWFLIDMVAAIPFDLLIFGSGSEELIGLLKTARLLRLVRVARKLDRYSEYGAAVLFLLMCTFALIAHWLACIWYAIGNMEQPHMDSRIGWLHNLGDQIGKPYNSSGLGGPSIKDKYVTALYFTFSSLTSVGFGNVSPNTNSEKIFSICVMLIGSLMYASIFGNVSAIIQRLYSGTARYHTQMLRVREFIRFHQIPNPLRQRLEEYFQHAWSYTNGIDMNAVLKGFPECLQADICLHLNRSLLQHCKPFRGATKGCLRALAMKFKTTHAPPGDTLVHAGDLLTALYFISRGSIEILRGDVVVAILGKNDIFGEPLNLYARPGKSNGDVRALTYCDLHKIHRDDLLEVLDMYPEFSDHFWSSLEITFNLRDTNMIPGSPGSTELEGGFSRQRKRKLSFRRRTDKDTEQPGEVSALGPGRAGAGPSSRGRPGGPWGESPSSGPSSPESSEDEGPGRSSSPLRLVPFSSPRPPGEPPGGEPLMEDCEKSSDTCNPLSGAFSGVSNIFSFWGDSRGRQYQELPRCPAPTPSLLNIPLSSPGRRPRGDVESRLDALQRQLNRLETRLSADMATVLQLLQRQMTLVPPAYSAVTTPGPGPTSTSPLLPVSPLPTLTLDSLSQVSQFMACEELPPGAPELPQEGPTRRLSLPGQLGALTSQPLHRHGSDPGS
# Protocol: Cell culture and treatment: CHO cells stably expressing hERG were cultured in a cell culture flask and incubated in an incubator with 5% CO2 at 37 °C. When the cell density reached 60%-80%, the cell culture medium was removed by pipetting. The cells were washed once with PBS, and then Detachin was added for detachment. After complete detachment, a culture medium was added for neutralization. The cells were then centrifuged, and the supernatant was removed by pipetting. A culture medium was further added for resuspension, and the cell density was adjusted to (2-5) × 10^6 cells/mL for later use.
# Compound preparation: The compound stock solution was diluted with 100% DMSO. Specifically, 10 µL of the compound stock solution was added to 20 µL of DMSO, followed by a 3-fold serial dilution to obtain 6 concentrations. 4 µL of each of the 6 compound solutions at different concentrations was taken and added to 396 µL of an extracellular fluid, resulting in a 100-fold dilution to obtain 6 intermediate concentrations. Then, 80 µL of each of the 6 intermediate-concentration compound solutions was taken and added to 320 µL of an extracellular fluid, resulting in a 5-fold dilution to achieve the final test concentrations. The highest test concentration was 40 µM. […] DMSO at this concentration has no effect on the hERG potassium channel. During the compound preparation, the entire dilution process was completed by a Bravo instrument.
# Electrophysiological recording process: The single-cell high-impedance sealing and whole-cell mode formation processes were all completed automatically by a Qpatch instrument. After achieving the whole-cell recording mode, the cells were clamped at -80 mV. Before a 5-second +40 mV depolarizing stimulus was applied, a 50-millisecond -50 mV prepulse voltage was first applied. The potential was then repolarized to -50 mV and held for 5 s, and finally returned to -80 mV. This voltage stimulation was applied every 15 s. After 2 min of recording, the extracellular fluid was administered, followed by recording for 5 min. Then, the compound administration process began, starting from the lowest test compound concentration. Each test concentration was applied for 2.5 min. After all the concentrations were applied consecutively, the positive control compound, 3 µM Cisapride, was administered. At least 3 cells (n ≥ 3) were tested for each concentration.
# Data processing: Data analysis and processing were performed using GraphPad Prism 5.0 and Excel software. The IC50 of the compound was calculated using GraphPad Prism 5 software by equation fitting as follows: Y = Bottom + (Top−Bottom)/(1+10^(∧)((LogIC50−X)*HillSLope)) [formula] where X is the Log value of the test concentration of the test sample, Y is the inhibition percentage at the corresponding concentration, and Bottom and Top are the minimum and maximum inhibition percentages, respectively. Table 17. Results of inhibition of hERG potassium ion channel by compounds
# [4] = system: CD34+ hematopoietic stem and progenitor cells (hmPB34-P-SC); assay: Hematological toxicity assay (CellTiter-Glo 2.0); format: cell-based; conditions: 120 h; 5 days of culture
# Protocol: The next day, the cells were resuspended and seeded in a 96-well plate at a concentration of 1000 cells/well, and meanwhile, different concentrations of the drug were added for treatment, with 3 replicate wells set for each concentration. After 5 days of culture, the number of viable cells in each well was determined using a CellTiter-Glo 2.0 kit, followed by detection by a microplate reader.
IC50 [1],Vdss [2],AUC(0-t) [2],Cmax [2],half-life [2],SMILES,CL [2],inhibitory effects on the hERG potassium ion channel (in words) [3],"inhibition at 2.5 min, 20 µM [3]",IC50 [4]
> 1 µM,0.38 L/kg,5.4 µg·h/mL,2.35 µg/mL,1.36 h,"CCc1cc2c([nH]c1=O)CC(CN1CCN(c3ccc(C(=O)NC)nc3F)CC1)OC2 (centres unmarked) [Compound 2, 5-(4-((3-Ethyl-2-oxo-1,5,7,8-tetrahydro-2H-pyrano[4,3-b]pyridin-7-yl)methyl)piperazin-1-yl)-6-fluoro-N-methyl picolinamide]",0.19 L/h/kg,"Conclusion: Compounds 2, 6, 45, 62, 67, 74, 83, 87, etc., of the present disclosure exhibited relatively weak inhibitory effects on the hERG potassium ion channel.",6.7%,0.738 µM
> 1 µM,1.06 L/kg,17.1 µg·h/mL,2.35 µg/mL,2.52 h,"CNC(=O)c1ccc(N2CCN(CC3Cc4[nH]c(=O)c(C)cc4CO3)CC2)c(Cl)n1 (centres unmarked) [Example 74, 6-Chloro-N-methyl-5-(4-((3-methyl-2-oxo-1,5,7,8-tetrahydro-2H-pyrano[4,3-b]pyridin-7-yl)methyl)piperazin-1-yl)picolinamide]",–,"Conclusion: Compounds 2, 6, 45, 62, 67, 74, 83, 87, etc., of the present disclosure exhibited relatively weak inhibitory effects on the hERG potassium ion channel.",17.7%,> 1 µM

SMILES,IC50 [1],Vdss [2],AUC(0-t) [2],Cmax [2],half-life [2],CL [2],inhibitory effects on the hERG potassium ion channel (in words) [3],"inhibition at 2.5 min, 20 µM [3]",IC50 [4]
"CNC(=O)c1ccc(N2CCN(C[C@H]3CCc4nc(C)c(=O)[nH]c4C3)CC2)c(F)n1 [Example 45, (S)-6-Fluoro-N-methyl-5-(4-((2-methyl-3-oxo-3,4,5,6,7,8-hexahydroquinoxaline-6-yl)methyl)piperazin-1-yl)picolinamide]",> 1 µM,6.85 L/kg,1.54 µg·h/mL,0.359 µg/mL,7.98 h,0.59 L/h/kg,"Conclusion: Compounds 2, 6, 45, 62, 67, 74, 83, 87, etc., of the present disclosure exhibited relatively weak inhibitory effects on the hERG potassium ion channel.",13%,0.331 µM
